According to patent publication US12274732B2, “Anti-pathogen composition and methods of use thereof” (Tenfold Technologies, LLC, priority 2017, dated 2025):
Converted amounts (≈) assume the structure as drawn. Where two headings read alike, the source gives them in different places. Positions of bridges follow the written chain, without caps; N, C: chain ends. Non-standard residues stand in square brackets, D forms with d. Residues, ends and D or L forms follow the SMILES beside them. ξ: configuration not given here. *: point of attachment. Pentadecanoyl(3ξ-OH,15-Gua) = N=C(N)NCCCCCCCCCCCCC(O)CC(=O)*; d(aThr) = C[C@@H](O)[C@@H](N)C(=O)O; Thr(3ξ) = CC(O)[C@H](N)C(=O)O

Experiments:
Assay type in all cases: cell-based
[1] = system: Vancomycin-resistant Enterococcus faecium (VRE); assay: In vitro antimicrobial activity against VRE; conditions: for MIC: read-out: VRE MIC (minimum inhibitory concentration); for VRE IC50: Table 5, extracts tested at 8-200 μg/mL
Method: (§1) Fifty organic extracts were prepared from 25 whole broth of four microbial strains (MS1479, MS2379, MS2820, and MS2414), which were fermented in different media for the antimicrobial testing. Note each whole broth culture generated one n-butanol extract from cultural supernatant and one methanol extract from cell pellets.
(§2) The antimicrobial activities of the 50 organic extracts were studied against three fungal pathogens—Candida albicans, Aspergillus fumigatus, and Cryptococcus neoformans—and five bacterial strains-Methicillin-resistant Staphylococcus aureus (MIRSA), Escherichia coli, Pseudomonas aeruginosa, Klebsiella pneumoniae, and Vancomycin-resistant Enterococcus faecium (VRE) (FIG. 2). The test concentrations for all extracts were in the range of 8-200 μg/mL (Table 3).
(§3) The antimicrobial activities of identified fusaricidins were in an in vitro study against several clinically relevant microbes. […] For the in-vitro assays against bacteria, fusaricidins were tested against methicillin-resistant Staphylococcus aureus, vancomycin-resistant Enterococcus faecium, Escherichia coli, and Pseudomonas aeruginosa using four antibacterial drugs methicillin, vancomycin, cefotaxime, and meropenem as controls. […] Fusaricidins were also tested against fungal pathogens Cryptococcus neoformans, Candida albicans, and Aspergillus fumigatus and compared with two antifungal drugs, fluconazole and amphotericin B (Table 13). Moreover, the anti-parasitic activity was also tested against L. donovani and T. brucei (Table 14).

Escherichia coli = assay: In vitro antimicrobial activity against Escherichia coli; conditions: for MIC: read-out: E. coli MIC (minimum inhibitory concentration)
Method: as §1, §2, §3

Cryptococcus neoformans = assay: In vitro antimicrobial activity against Cryptococcus neoformans; conditions: for C. neoformans IC50 (50% growth inhibitory concentration) / C. neoformans MIC (minimum inhibitory concentration): Table 12; for C. neoformans IC50 (50% growth inhibitory concentration): highest test conc. fusaricidins 20, controls 100 μg/mL; for C. neoformans MIC (minimum inhibitory concentration): lowest concentration that allows no detectable growth; for IC50: Cryptococcus neoformans, test conc. 200-8 μg/mL (extracts), 100-4 or 10-0.4 μg/mL (drugs), read-out: C. neoformans IC50; for C. neoformans IC50: Table 5, extracts tested at 8-200 μg/mL
Method: as §1, §2
The potent activities against the fungal pathogen C. neoformans and the gram-positive bacteria S. aureus, MRSA, and M. intracellulare were also shown in the crude extracts (FIG. 7).
as §3

Pseudomonas aeruginosa = assay: In vitro antimicrobial activity against Pseudomonas aeruginosa; conditions: for MIC: read-out: P. aeruginosa MIC (minimum inhibitory concentration)
Method: as §1, §2, §3

Aspergillus fumigatus = assay: In vitro antimicrobial activity against Aspergillus fumigatus; conditions: for A. fumigatus IC50 (50% growth inhibitory concentration) / A. fumigatus MIC (minimum inhibitory concentration): Table 12; for A. fumigatus IC50 (50% growth inhibitory concentration): highest test conc. fusaricidins 20, controls 100 μg/mL; for A. fumigatus MIC (minimum inhibitory concentration): lowest concentration that allows no detectable growth; for IC50: Aspergillus fumigatus, test conc. 200-8 μg/mL (extracts), 100-4 or 10-0.4 μg/mL (drugs), read-out: A. fumigatus IC50; for A. fumigatus IC50: Table 5, extracts tested at 8-200 μg/mL
Method: as §1, §2, §3

Candida albicans = assay: In vitro antimicrobial activity against Candida albicans; conditions: for C. albicans IC50 (50% growth inhibitory concentration) / C. albicans MIC (minimum inhibitory concentration): Table 12; for C. albicans IC50 (50% growth inhibitory concentration): highest test conc. fusaricidins 20, controls 100 μg/mL; for C. albicans MIC (minimum inhibitory concentration): lowest concentration that allows no detectable growth; for IC50: Candida albicans, test conc. 200-8 μg/mL (extracts), 100-4 or 10-0.4 μg/mL (drugs), read-out: C. albicans IC50; for C. albicans IC50: Table 5, extracts tested at 8-200 μg/mL
Method: as §1, §2, §3

[2] = system: Methicillin-resistant Staphylococcus aureus (MRSA); assay: In vitro antimicrobial activity against MRSA; conditions: for MIC: read-out: MRSA MIC (minimum inhibitory concentration)
Method: as §1, §2, §3

Klebsiella pneumoniae = assay: In vitro antimicrobial activity against Klebsiella pneumoniae; conditions: Klebsiella pneumoniae; test conc. 200-8 μg/mL (extracts), 100-4 or 10-0.4 μg/mL (drugs); read-out: K pneumoniae IC50
Method: as §1, §2

[3] = Table 13, Vancomycin-resistant Enterococcus faecium ATCC 700221
[4] = Table 13, Escherichia coli ATCC 2452
[5] = Table 13, Pseudomonas aeruginosa ATCC 2108
[6] = Table 13, Methicillin-resistant Staphylococcus aureus ATCC 1708
[7] = ATCC 700221 / VRE, Table 13, Vancomycin-resistant Enterococcus faecium ATCC 700221, read-out: VRE IC50 (50% growth inhibitory concentration)
[8] = ATCC 700221 / VRE, Table 13, Vancomycin-resistant Enterococcus faecium ATCC 700221
[9] = test conc. 200-8 μg/mL (extracts), 100-4 or 10-0.4 μg/mL (drugs), read-out: VRE IC50
[10] = ATCC2452, Table 13, Escherichia coli ATCC 2452, read-out: E. coli IC50 (50% growth inhibitory concentration)
[11] = ATCC2452, Table 13, Escherichia coli ATCC 2452
[12] = Escherichia coli, test conc. 200-8 μg/mL (extracts), 100-4 or 10-0.4 μg/mL (drugs), read-out: E. coli IC50
[13] = ATCC2108, Table 13, Pseudomonas aeruginosa ATCC 2108, read-out: P. aeruginosa IC50 (50% growth inhibitory concentration)
[14] = ATCC2108, Table 13, Pseudomonas aeruginosa ATCC 2108
[15] = Pseudomonas aeruginosa, test conc. 200-8 μg/mL (extracts), 100-4 or 10-0.4 μg/mL (drugs), read-out: P. aeruginosa IC50
[16] = ATCC 1708 / MRSA, Table 13, Methicillin-resistant Staphylococcus aureus ATCC 1708, read-out: MRSA IC50 (50% growth inhibitory concentration)
[17] = ATCC 1708 / MRSA, Table 13, Methicillin-resistant Staphylococcus aureus ATCC 1708
[18] = Staphylococcus aureus, MRSA, test conc. 200-8 μg/mL (extracts), 100-4 or 10-0.4 μg/mL (drugs), read-out: MRS IC50

In the case of CC(C)[C@@H]1NC(=O)[C@@H](C(C)C)NC(=O)[C@@H](NC(=O)CC(O)CCCCCCCCCCCCN=C(N)N)[C@@H](C)OC(=O)[C@@H](C)NC(=O)[C@@H](CC(N)=O)NC(=O)[C@@H]([C@@H](C)O)NC1=O (stereo partly shown) [Fusaricidin A (SQ-1-43 A)] ({Pentadecanoyl(3ξ-OH,15-Gua)}-T[dV]V[d(aThr)][dN][dA]; ester 1-C), the “VRE IC50 (50% growth inhibitory concentration)” value [1, 3] was 3.6 µg/mL, the “VRE MIC (minimum inhibitory concentration)” value [1, 3] was 5.0 µg/mL and the “E. coli IC50 (50% growth inhibitory concentration)” value (Escherichia coli; [4]) was >20/>20 μg/mL. For the same compound, the “E. coli MIC (minimum inhibitory concentration)” value (Escherichia coli; [4]) was >20/>20 μg/mL, the “C. neoformans IC50 (50% growth inhibitory concentration)” value (Cryptococcus neoformans) was 0.5 µg/mL and the “C. neoformans MIC (minimum inhibitory concentration)” value (Cryptococcus neoformans) was 1.3 µg/mL. The “P. aeruginosa IC50 (50% growth inhibitory concentration)” value (Pseudomonas aeruginosa; [5]) was >20/>20 μg/mL, the “P. aeruginosa MIC (minimum inhibitory concentration)” value (Pseudomonas aeruginosa; [5]) was >20/>20 μg/mL and the “A. fumigatus IC50 (50% growth inhibitory concentration)” value (Aspergillus fumigatus) was >20/>20 μg/mL. The “A. fumigatus MIC (minimum inhibitory concentration)” value (Aspergillus fumigatus) was >20/>20 μg/mL, the “C. albicans IC50 (50% growth inhibitory concentration)” value (Candida albicans) was 5.1 µg/mL and the “C. albicans MIC (minimum inhibitory concentration)” value (Candida albicans) was 10.0 µg/mL. The “MRSA IC50 (50% growth inhibitory concentration)” value [2, 6] was 2.3 µg/mL and the “MRSA MIC (minimum inhibitory concentration)” value [2, 6] was 2.5 µg/mL.
For CC(C)[C@@H]1NC(=O)[C@@H](C(C)C)NC(=O)[C@@H](NC(=O)CC(O)CCCCCCCCCCCCN=C(N)N)C(C)OC(=O)[C@@H](C)NC(=O)[C@@H](CCC(N)=O)NC(=O)[C@@H]([C@H](C)O)NC1=O (stereo partly shown) [Fusaricidin B (SQ-1-43B)] ({Pentadecanoyl(3ξ-OH,15-Gua)}-[Thr(3ξ)][dV]V[dT][dQ][dA]; ester 1-C), the “VRE IC50 (50% growth inhibitory concentration)” value [1, 3] was 8.7 µg/mL, the “VRE MIC (minimum inhibitory concentration)” value [1, 3] was 20.0 µg/mL and the “E. coli IC50 (50% growth inhibitory concentration)” value (Escherichia coli; [4]) was >20/>20 μg/mL. The “E. coli MIC (minimum inhibitory concentration)” value (Escherichia coli; [4]) was >20/>20 μg/mL, the “C. neoformans IC50 (50% growth inhibitory concentration)” value (Cryptococcus neoformans) was 1.1 µg/mL and the “C. neoformans MIC (minimum inhibitory concentration)” value (Cryptococcus neoformans) was 2.5 µg/mL. The “P. aeruginosa IC50 (50% growth inhibitory concentration)” value (Pseudomonas aeruginosa; [5]) was >20/>20 μg/mL, the “P. aeruginosa MIC (minimum inhibitory concentration)” value (Pseudomonas aeruginosa; [5]) was >20/>20 μg/mL and the “A. fumigatus IC50 (50% growth inhibitory concentration)” value (Aspergillus fumigatus) was >20/>20 μg/mL. The “A. fumigatus MIC (minimum inhibitory concentration)” value (Aspergillus fumigatus) was >20/>20 μg/mL, the “C. albicans IC50 (50% growth inhibitory concentration)” value (Candida albicans) was 9.1 µg/mL and the “C. albicans MIC (minimum inhibitory concentration)” value (Candida albicans) was 10.0 µg/mL. The “MRSA IC50 (50% growth inhibitory concentration)” value [2, 6] was 4.2 µg/mL and the “MRSA MIC (minimum inhibitory concentration)” value [2, 6] was 5.0 µg/mL.
With C[C@@H](O)[C@H]1C(=O)N2C(C(=O)O)=C(S[C@@H]3CN[C@H](C(=O)N(C)C)C3)[C@H](C)[C@H]12 [Meropenem] the IC50 [1, 7] was over 100 µg/mL, the MIC [1, 8] was over 100 µg/mL and the “VRE IC50” value [1] was over 100 µg/mL. It also gave an IC50 [1, 9] of over 100 µg/mL, an IC50 (Escherichia coli; [10]) of 5.4 µg/mL (≈ 14.1 µM) and an MIC (Escherichia coli; [11]) of 12.5 µg/mL (≈ 32.6 µM). The IC50 (Escherichia coli; [12]) was 11.5 µg/mL (≈ 30 µM), the IC50 (Cryptococcus neoformans) was over 100 µg/mL and the “C. neoformans IC50” value (Cryptococcus neoformans) was over 100 µg/mL. For the same compound, the IC50 (Pseudomonas aeruginosa; [13]) was 5.9 µg/mL (≈ 15.4 µM), the MIC (Pseudomonas aeruginosa; [14]) was 25 µg/mL (≈ 65.2 µM) and the IC50 (Pseudomonas aeruginosa; [15]) was over 100 µg/mL. For the same compound, the IC50 (Klebsiella pneumoniae) was 18.1 µg/mL (≈ 47.3 µM), the IC50 (Aspergillus fumigatus) was over 100 µg/mL and the “A. fumigatus IC50” value (Aspergillus fumigatus) was over 100 µg/mL. For the same compound, the IC50 (Candida albicans) was over 100 µg/mL, the “C. albicans IC50” value (Candida albicans) was over 100 µg/mL and the IC50 [2, 16] was 5.7 µg/mL (≈ 14.9 µM). For the same compound, the MIC [2, 17] was 12.5 µg/mL (≈ 32.6 µM) and the IC50 [2, 18] was 2.75 µg/mL (≈ 7.17 µM).
For COc1cccc(OC)c1C(=O)N[C@@H]1C(=O)N2[C@@H]1SC(C)(C)[C@@H]2C(=O)O [Methicillin], the IC50 [1, 7] was over 100 µg/mL, the MIC [1, 8] was over 100 µg/mL and the “VRE IC50” value [1] was over 100 µg/mL. The IC50 [1, 9] was over 100 µg/mL, the IC50 (Escherichia coli; [10]) was over 100 µg/mL and the MIC (Escherichia coli; [11]) was over 100 µg/mL. The IC50 (Escherichia coli; [12]) was over 100 µg/mL, the IC50 (Cryptococcus neoformans) was over 100 µg/mL and the “C. neoformans IC50” value (Cryptococcus neoformans) was over 100 µg/mL. It also gave an IC50 (Pseudomonas aeruginosa; [13]) of 76 µg/mL (≈ 200 µM), an MIC (Pseudomonas aeruginosa; [14]) of over 100 µg/mL and an IC50 (Pseudomonas aeruginosa; [15]) of 95.4 µg/mL (≈ 251 µM). For the same compound, the IC50 (Klebsiella pneumoniae) was over 100 µg/mL, the IC50 (Aspergillus fumigatus) was over 100 µg/mL and the “A. fumigatus IC50” value (Aspergillus fumigatus) was over 100 µg/mL. For the same compound, the IC50 (Candida albicans) was over 100 µg/mL, the “C. albicans IC50” value (Candida albicans) was over 100 µg/mL and the IC50 [2, 16] was 12.1 µg/mL (≈ 31.8 µM). For the same compound, the MIC [2, 17] was 50 µg/mL (≈ 131 µM) and the IC50 [2, 18] was 19 µg/mL (≈ 49.9 µM).
Fusaricidin B was tested, and the “activity against VRE (in words)” value [1] was “strong activity” and the “activity against MRSA (in words)” value [2] was “strong activity”.
